Measured values reported in ChEMBL document CHEMBL2074244, “Loss of ATP-dependent transport activity in pseudoxanthoma elasticum-associated mutants of human ABCC6 (MRP6)” (J Biol Chem, 2002).
Each block holds one molecule with its values, some of them ahead of it.

Assays:
Format in all cases: functional, cell membranes, Membrane vesicle
Set-up in all cases: scale not given: the % may be the effect or the level left
[1] = target: ATP-binding cassette sub-family C member 2 (Homo sapiens, UniProt Q92887); assay: TP_TRANSPORTER: inhibition of NEM-GS by Benzbromarone at a concentration of 30uM in membrane vesicles from MRP2-expressing Sf9 cells; conditions: sf9, 30 µM
MRP6 (ABCC6) [2] = target: T1, MRP6 (ABCC6) (Homo sapiens, UniProt O95255); assay: TP_TRANSPORTER: inhibition of NEM-GS in the presence of Benzbromarone at a concentration of 30uM in membrane vesicles from MRP6-expressing Sf9 cells; conditions: probe NEM-GS, read-out: Activity
MRP6 (ABCC6) [3] = target: T1, MRP6 (ABCC6); assay: TP_TRANSPORTER: inhibition of NEM-GS by Benzbromarone at a concentration of 30uM in membrane vesicles from MRP6-expressing Sf9 cells; conditions: probe NEM-GS, read-out: Activity
MRP6 (ABCC6) [4] = target: T1, MRP6 (ABCC6); assay: TP_TRANSPORTER: inhibition of NEM-GS in the presence of Indomethacin at a concentration of 100uM in membrane vesicles from MRP6-expressing Sf9 cells; conditions: probe NEM-GS, read-out: Activity
MRP6 (ABCC6) [5] = target: T1, MRP6 (ABCC6); assay: TP_TRANSPORTER: inhibition of NEM-GS by Indomethacin at a concentration of 100uM in membrane vesicles from MRP6-expressing Sf9 cells; conditions: probe NEM-GS, read-out: Activity
MRP6 (ABCC6) [6] = target: T1, MRP6 (ABCC6); assay: TP_TRANSPORTER: inhibition of NEM-GS in the presence of Probenecid at a concentration of 1mM in membrane vesicles from MRP6-expressing Sf9 cells; conditions: probe NEM-GS, read-out: Activity
[7] = target: ATP-binding cassette sub-family C member 6 (Homo sapiens, UniProt O95255); assay: TP_TRANSPORTER: inhibition of NEM-GS by Probenecid at a concentration of 1mM in membrane vesicles from MRP6-expressing Sf9 cells; conditions: sf9, 1000 µM
MRP2 (ABCC2) = MRP2 (ABCC2) (Homo sapiens, UniProt Q92887); assay: TP_TRANSPORTER: inhibition of NEM-GS by Probenecid at a concentration of 1mM in membrane vesicles from MRP2-expressing Sf9 cells; conditions: probe NEM-GS, read-out: Activity
MRP2 (ABCC2), sequence (Q92887 whole entry): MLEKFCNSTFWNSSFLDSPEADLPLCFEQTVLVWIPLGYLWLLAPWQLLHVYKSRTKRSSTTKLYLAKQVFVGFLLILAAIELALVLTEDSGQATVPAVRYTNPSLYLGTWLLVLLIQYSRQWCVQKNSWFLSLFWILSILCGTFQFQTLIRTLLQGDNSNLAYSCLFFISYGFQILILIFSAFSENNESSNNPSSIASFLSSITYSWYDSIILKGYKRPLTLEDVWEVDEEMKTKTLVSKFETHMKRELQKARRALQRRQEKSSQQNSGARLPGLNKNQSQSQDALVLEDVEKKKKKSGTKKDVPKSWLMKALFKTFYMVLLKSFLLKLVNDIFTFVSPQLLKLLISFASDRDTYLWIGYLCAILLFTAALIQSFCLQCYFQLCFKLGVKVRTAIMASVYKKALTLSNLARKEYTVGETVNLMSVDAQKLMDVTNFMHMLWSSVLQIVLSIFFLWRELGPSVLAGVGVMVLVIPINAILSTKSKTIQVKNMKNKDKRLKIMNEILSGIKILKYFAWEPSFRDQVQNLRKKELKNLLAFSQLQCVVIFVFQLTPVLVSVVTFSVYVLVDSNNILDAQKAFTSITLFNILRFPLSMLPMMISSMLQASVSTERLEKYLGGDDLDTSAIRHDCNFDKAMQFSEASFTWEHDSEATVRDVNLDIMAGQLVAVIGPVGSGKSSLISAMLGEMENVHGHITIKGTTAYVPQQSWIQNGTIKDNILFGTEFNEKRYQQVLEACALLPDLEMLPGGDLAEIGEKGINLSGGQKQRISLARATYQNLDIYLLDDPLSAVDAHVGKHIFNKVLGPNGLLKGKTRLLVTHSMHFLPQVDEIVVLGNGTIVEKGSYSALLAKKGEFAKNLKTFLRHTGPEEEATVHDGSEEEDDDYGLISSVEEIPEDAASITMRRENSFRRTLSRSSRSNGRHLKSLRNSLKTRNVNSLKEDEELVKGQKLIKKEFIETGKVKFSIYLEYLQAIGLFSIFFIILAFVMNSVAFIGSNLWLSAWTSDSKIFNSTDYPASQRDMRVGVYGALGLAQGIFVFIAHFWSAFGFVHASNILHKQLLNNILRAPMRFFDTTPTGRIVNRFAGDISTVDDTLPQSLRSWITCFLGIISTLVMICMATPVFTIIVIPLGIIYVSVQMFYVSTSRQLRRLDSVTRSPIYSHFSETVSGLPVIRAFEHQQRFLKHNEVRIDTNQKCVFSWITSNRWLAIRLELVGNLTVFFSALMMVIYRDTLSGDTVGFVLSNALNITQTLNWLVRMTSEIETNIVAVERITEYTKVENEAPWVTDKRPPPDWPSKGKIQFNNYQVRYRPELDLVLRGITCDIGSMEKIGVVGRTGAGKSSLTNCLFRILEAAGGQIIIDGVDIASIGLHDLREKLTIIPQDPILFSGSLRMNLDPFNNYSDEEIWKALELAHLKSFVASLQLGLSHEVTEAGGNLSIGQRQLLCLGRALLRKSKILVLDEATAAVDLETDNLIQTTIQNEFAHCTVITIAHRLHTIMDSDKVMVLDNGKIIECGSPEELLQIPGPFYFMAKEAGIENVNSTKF

T1 sequence (O95255 whole entry): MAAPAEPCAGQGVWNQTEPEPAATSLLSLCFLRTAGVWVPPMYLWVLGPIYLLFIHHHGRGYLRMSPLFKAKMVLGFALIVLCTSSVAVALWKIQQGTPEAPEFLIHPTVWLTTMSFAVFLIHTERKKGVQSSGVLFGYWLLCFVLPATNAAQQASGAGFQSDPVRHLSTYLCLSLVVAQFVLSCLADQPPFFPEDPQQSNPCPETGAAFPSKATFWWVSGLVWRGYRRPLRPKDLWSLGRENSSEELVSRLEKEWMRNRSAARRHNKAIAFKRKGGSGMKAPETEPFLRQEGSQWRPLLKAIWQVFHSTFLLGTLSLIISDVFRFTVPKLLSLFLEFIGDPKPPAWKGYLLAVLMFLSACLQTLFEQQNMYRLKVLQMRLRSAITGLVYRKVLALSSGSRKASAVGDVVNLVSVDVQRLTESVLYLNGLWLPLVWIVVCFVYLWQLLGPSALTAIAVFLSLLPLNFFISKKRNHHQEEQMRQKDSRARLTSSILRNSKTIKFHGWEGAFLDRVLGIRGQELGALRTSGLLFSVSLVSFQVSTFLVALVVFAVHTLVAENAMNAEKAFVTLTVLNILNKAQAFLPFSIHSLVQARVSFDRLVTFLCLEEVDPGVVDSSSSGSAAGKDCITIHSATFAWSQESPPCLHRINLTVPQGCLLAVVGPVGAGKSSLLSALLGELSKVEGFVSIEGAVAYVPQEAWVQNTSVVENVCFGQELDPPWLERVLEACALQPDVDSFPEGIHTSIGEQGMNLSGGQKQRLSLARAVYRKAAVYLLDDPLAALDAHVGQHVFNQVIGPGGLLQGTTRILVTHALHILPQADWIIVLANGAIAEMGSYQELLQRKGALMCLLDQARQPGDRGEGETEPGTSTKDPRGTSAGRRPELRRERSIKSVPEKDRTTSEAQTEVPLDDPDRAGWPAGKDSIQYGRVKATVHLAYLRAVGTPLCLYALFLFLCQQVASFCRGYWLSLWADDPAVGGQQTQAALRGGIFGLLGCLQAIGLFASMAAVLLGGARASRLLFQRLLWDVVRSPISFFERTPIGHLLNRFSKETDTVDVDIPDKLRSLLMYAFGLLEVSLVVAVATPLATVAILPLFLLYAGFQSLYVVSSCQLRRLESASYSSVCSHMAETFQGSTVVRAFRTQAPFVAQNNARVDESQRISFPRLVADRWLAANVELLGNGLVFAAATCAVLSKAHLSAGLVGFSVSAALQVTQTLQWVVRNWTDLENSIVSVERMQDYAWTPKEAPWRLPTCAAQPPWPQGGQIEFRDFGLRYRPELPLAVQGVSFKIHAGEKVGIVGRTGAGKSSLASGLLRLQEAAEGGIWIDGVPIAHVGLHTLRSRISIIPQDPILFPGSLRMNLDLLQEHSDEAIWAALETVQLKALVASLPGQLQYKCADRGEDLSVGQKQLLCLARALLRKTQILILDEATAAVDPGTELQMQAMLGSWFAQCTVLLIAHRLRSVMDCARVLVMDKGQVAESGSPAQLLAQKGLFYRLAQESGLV
ATP-binding cassette sub-family C member 6, sequence (O95255 whole entry): as above
ATP-binding cassette sub-family C member 2, sequence (Q92887 whole entry): as the sequence (Q92887 whole entry) above

- Activity [1]: 0%
- activity at 30 µM (MRP6 (ABCC6) [2]): 0%
- activity at 30 µM (MRP6 (ABCC6) [3]): 0%
Compound: CCc1oc2ccccc2c1C(=O)c1cc(Br)c(O)c(Br)c1 [BENZBROMARONE]

- activity at 100 µM (MRP6 (ABCC6) [4]): 80%
- activity at 100 µM (MRP6 (ABCC6) [5]): 20%
Compound: COc1ccc2c(c1)c(CC(=O)O)c(C)n2C(=O)c1ccc(Cl)cc1 [INDOMETHACIN]

- activity at 1000 µM (MRP6 (ABCC6) [6]): 10%
- Activity [7]: 70%
- activity at 1000 µM (MRP2 (ABCC2)): 20%
Compound: CCCN(CCC)S(=O)(=O)c1ccc(C(=O)O)cc1 [PROBENECID]
